Assays:
[1] = Chemical stability in simulated gastrointestinal fluids; format: physicochemical; conditions: GSF (pH 2), FESSIF (pH 5.0), FASSIF (pH 6.5)
Procedure: The chemical stability of eurycomanone was estimated in gastric simulated fluid (GSF), pH 2; fasted simulated intestinal fluid (FASSIF), pH 6.5; fed simulated intestinal fluid (FESSIF), pH 5.0; and in 150 mM NaHCO3 at pH 9.2. Eurycomanone (3 µL) at 5 mM was added to 297 µL of the respective buffers. The mixture (100 µL) was added to 100 µL of ACN at time points 1 and 3 h and sent for LC-MS/MS analysis.

[2] = Lipophilicity, shake flask method with octanol and buffer (pH 7.4); format: physicochemical; conditions: pH 7.4, octanol/buffer shake flask; read-out: distribution coefficient log D
Procedure: The lipophilicity of eurycomanone was estimated using the shake flask method with octanol and buffer (pH 7.4). Eurycomanone (5 µL) at 5 mM concentration is added to octanol (495 µL) and DMSO (495 µL) and also into the aqueous and octanol phase in a 1:1 ratio ([…] of octanol phase and 247.5 µL of aqueous phase). The octanol and aqueous phases were prepared using a saturation process, where equal amounts of D-PBS (pH 7.4) and octanol were saturated (300 rpm, room temperature) for 24 h before being separated and kept at room temperature. The prepared mixtures were vortexed and kept on the shaker (300 rpm) at room temperature for 16 h. The mixtures were allowed to stand for 30 min, and 200 µL of solution was transferred and sent for HPLC analysis.

[3] = Plasma stability, human; format: in vitro ADME; conditions: 5 µM, 37 °C, up to 4 h
Procedure: The plasma stability was estimated by preparing 5 µM of eurycomanone in 600 µL plasma in triplicates. The plasma stability of eurycomanone was determined in five types of plasma (mice, rat, dog, monkey, and human). The reaction was kept at 37 °C and ACN (100 µL) was added at timepoints 0, 30 min, and 1, 2, and 4 h to the reaction mixture (100 µL). The supernatant (10,000 rpm, 10 min, 4 °C) was collected and analysed by LC-MS/MS. The standards (propantheline bromide and enalapril) were analysed in triplicates.

[4] = Rat liver hepatocyte stability; format: in vitro ADME; conditions: rat liver hepatocytes
[5] = design: method as in PMID 27572280; conditions: cited from earlier work
[6] = Plasma protein binding (rapid equilibrium dialysis), human; format: in vitro ADME; conditions: pH 7.4; human plasma, 10 µM, 37 °C, 4 h; read-out: percentage bound to plasma protein (converted)
Procedure: (§1) The ability of eurycomanone to bind plasma protein was analysed in five types of plasma (mice, rat, dog, monkey, and human). Each type of plasma was spiked with eurycomanone (1 mM) to make the 10 µM test concentration of eurycomanone in the plasma. Equilibrium dialysis buffer (500 µL) at pH 7.4 was added to the right chamber in rapid equilibrium dialysis (RED), while the spiked plasma (300 µL) was added to the left chamber. The Teflon base plate was covered with aluminium foil and left on the shaking incubator at 37 °C for 4 h. The matrix was balanced by mixing 100 µL of the equilibrium buffer with the spiked plasma from the left chamber in RED before adding the stop solution (350 µL) to precipitate out the protein. The supernatant (10,000 rpm, 10 min, 4 °C) was collected and analysed using LC-MS/MS. The standards (propranolol, warfarin, and acebutalol) were analysed in duplicates.

[7] = test system: plasma protein; assay: as above; format: in vitro ADME; conditions: range over all species' plasma apart from dog (rat, monkey, mice, human)
Procedure: as §1

In the case of `C=C1[C@@H](O)[C@]2(O)OC[C@]34[C@H]2[C@@]2(C)[C@H](O)C(=O)C=C(C)[C@@H]2C[C@H]3OC(=O)[C@H](O)[C@@]14O` [Eurycomanone], the “chemical stability (percentage remaining after 3 h of incubation)” value [1] is reported as “high stability”, the “chemical stability (percentage remaining after 3 h of incubation)” value ([1]; listed as eurycomanone) is reported as “chemically stable across all pH values tested” and the logD at 16 h [2] is reported as -0.35. For the same molecule, the plasma stability [3] was “highly stable”, the “Half-life (t1/2)” value [4] was >1.5 h and the half-life [4] was > 1.5 h. For the same molecule, the hepatocyte CLint ([4]; read-out: Intrinsic clearance (Clint)) was 0.67 µL/min/1e6 cells, the Cmax [5] was 40.43 ng/mL and the fraction unbound at 4 h, 10 µM [6] was 0.611. The “fraction of unbound eurycomanone” value [7] was 61.1–78.4%.
